One assay concerns the target T1, F508del (Homo sapiens, UniProt P13569, DEL508-508).
T1 construct: expressed in transfected cells
As to the kind of experiment: Protocol 2: FRET membrane potential optical assay (VIPR), identification of correction compounds. It is filed as cell-based. The conditions noted are these: F508del CFTR modulator activity; compounds of Table 1; read-out: EC30. An outline of the steps:
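Correction of the F508del trafficking defect is scored as forskolin (10 μM)/genistein (20 μM)-stimulated Cl^− efflux in NIH3T3 mouse fibroblasts after a 16 hr, 37° C. compound exposure. Depolarization was followed optically using voltage-sensing FRET dyes.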
T1 sequence (P13569 with tags, fused parts or gaps DEL508-508): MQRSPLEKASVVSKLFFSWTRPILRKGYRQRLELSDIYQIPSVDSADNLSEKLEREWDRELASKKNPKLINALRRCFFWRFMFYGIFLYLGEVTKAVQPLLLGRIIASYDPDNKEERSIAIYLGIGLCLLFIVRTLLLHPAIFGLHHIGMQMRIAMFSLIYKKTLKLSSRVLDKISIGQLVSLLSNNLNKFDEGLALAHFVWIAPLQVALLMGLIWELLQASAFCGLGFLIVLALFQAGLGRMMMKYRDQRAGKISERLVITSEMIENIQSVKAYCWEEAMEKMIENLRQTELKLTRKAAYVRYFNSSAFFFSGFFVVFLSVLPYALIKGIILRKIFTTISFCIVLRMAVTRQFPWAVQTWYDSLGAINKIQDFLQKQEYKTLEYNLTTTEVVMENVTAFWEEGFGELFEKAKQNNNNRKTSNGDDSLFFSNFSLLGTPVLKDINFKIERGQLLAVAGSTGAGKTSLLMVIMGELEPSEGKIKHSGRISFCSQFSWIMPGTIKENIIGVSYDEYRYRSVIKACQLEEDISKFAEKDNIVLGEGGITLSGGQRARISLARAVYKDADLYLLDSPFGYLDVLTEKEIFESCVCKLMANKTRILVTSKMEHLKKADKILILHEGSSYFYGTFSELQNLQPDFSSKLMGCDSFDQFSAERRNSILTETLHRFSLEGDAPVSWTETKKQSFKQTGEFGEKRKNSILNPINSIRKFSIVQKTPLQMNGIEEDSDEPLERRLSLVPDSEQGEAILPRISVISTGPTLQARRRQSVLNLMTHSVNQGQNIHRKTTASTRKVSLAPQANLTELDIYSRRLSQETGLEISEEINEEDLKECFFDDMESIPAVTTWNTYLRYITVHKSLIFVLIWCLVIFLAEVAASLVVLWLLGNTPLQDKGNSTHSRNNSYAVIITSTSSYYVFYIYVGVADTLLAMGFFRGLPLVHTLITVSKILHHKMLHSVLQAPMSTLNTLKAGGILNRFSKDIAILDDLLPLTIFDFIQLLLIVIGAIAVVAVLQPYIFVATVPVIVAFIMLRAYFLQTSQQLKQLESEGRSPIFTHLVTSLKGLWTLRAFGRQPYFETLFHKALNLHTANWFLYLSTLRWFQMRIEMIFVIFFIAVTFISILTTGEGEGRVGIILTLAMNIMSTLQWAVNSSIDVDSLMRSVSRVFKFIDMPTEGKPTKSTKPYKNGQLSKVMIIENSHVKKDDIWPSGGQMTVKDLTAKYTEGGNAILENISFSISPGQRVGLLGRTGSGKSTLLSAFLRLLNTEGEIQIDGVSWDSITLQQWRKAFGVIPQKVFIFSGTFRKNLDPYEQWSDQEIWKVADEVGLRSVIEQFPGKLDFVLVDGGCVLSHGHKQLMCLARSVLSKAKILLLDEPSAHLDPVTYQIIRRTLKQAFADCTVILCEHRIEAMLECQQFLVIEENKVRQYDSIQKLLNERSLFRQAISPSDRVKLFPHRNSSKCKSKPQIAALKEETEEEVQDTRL
Take `CCOc1ccc(F)c(-c2ccc(C(=O)NS(=O)(=O)c3cccnc3N)c(N3C[C@@H](C)CC3(C)C)n2)c1` [Compound 2149, N-[(2-amino-3-pyridyl)sulfonyl]-6-(5-ethoxy-2-fluoro-phenyl)-2-[(4S)-2,2,4-trimethylpyrrolidin-1-yl]pyridine-3-carboxamide]: the EC30 – broadly, the concentration at which the effect reaches the 30% level – was < 3000 nM.

`COc1ccc(-c2ccc(C(=O)NS(=O)(=O)c3ccc[nH]c3=O)c(N3C[C@@H](C)CC3(C)C)n2)cc1F` [Compound 2219, 6-(3-fluoro-4-methoxy-phenyl)-N-[(2-oxo-1H-pyridin-3-yl)sulfonyl]-2-[(4S)-2,2,4-trimethylpyrrolidin-1-yl]pyridine-3-carboxamide]: the concentration for an effect of 30% (EC30) was 3000 to 10000 nM. For `COc1ccc(C)cc1-c1ccc(C(=O)NS(=O)(=O)c2ccc[nH]c2=O)c(N2C[C@@H](C)CC2(C)C)n1` [Compound 2530, 6-(2-methoxy-5-methyl-phenyl)-N-[(2-oxo-1H-pyridin-3-yl)sulfonyl]-2-[(4S)-2,2,4-trimethylpyrrolidin-1-yl]pyridine-3-carboxamide], the EC30 is < 3000 nM.

For the compound `Cc1cc(-c2ccc(C(=O)NS(=O)(=O)c3cccnc3N)c(N3C[C@@H](C)CC3(C)C)n2)ccc1F` [Compound 2052, N-[(2-amino-3-pyridyl)sulfonyl]-6-(4-fluoro-3-methyl-phenyl)-2-[(4S)-2,2,4-trimethylpyrrolidin-1-yl]pyridine-3-carboxamide], the 30% effect concentration (EC30) was < 3000 nM.

In the case of `CC1CN(c2ncccc2C(=O)NS(=O)(=O)c2cccc(Nc3ccc4c(c3)OCCO4)n2)C(C)(C)C1` (centres unmarked) [Compound 2190, N—[[6-(2,3-dihydro-1,4-benzodioxin-6-ylamino)-2-pyridyl]sulfonyl]-2-(2,2,4-trimethylpyrrolidin-1-yl)pyridine-3-carboxamide], the 30% effect concentration (EC30) is < 3000 nM.

On to `CCCC(C)N1CCN(c2cccc(S(=O)(=O)NC(=O)c3cccnc3N3CC(C)CC3(C)C)n2)CC1` (centres unmarked) [Compound 2226, N—[[6-[4-(1-methylbutyl)piperazin-1-yl]-2-pyridyl]sulfonyl]-2-(2,2,4-trimethylpyrrolidin-1-yl)pyridine-3-carboxamide], for which the concentration for an effect of 30% (EC30) was 3000 to 10000 nM. With `COc1cccc(-c2ccc(C(=O)NS(=O)(=O)c3cccnc3N)c(N3C[C@@H](C)CC3(C)C)n2)n1` [Compound 2268, N-[(2-amino-3-pyridyl)sulfonyl]-6-(6-methoxy-2-pyridyl)-2-[(4S)-2,2,4-trimethylpyrrolidin-1-yl]pyridine-3-carboxamide], the EC30 is < 3000 nM. Consider `C[C@@H]1CN(c2nc(-n3cc(OCC(C)(C)C)cn3)ccc2C(=O)NS(=O)(=O)c2cccc(N)n2)C(C)(C)C1` [Compound 2603, N-[(6-amino-2-pyridyl)sulfonyl]-6-[4-(2,2-dimethylpropoxy)pyrazol-1-yl]-2-[(4S)-2,2,4-trimethylpyrrolidin-1-yl]pyridine-3-carboxamide], for which the 30% effect concentration (EC30) was < 3000 nM. On the same count and under the same terms, the figure for `Cc1ccc2nc(N3C[C@@H](C)CC3(C)C)c(C(=O)NS(=O)(=O)c3cccc(N)n3)cc2c1` [Compound 2548, N-[(6-amino-2-pyridyl)sulfonyl]-6-methyl-2-[(4S)-2,2,4-trimethylpyrrolidin-1-yl]quinoline-3-carboxamide] is < 3000 nM; for `CC1CN(c2ncccc2C(=O)NS(=O)(=O)c2cccc(Oc3cc(Cl)cc(Cl)c3)n2)C(C)(C)C1` (centres unmarked) [Compound 2663, N—[[6-(3,5-dichlorophenoxy)-2-pyridyl]sulfonyl]-2-(2,2,4-trimethylpyrrolidin-1-yl)pyridine-3-carboxamide] it is < 3000 nM. As to `C[C@@H]1CN(c2nc(-c3cncc4ccccc34)ccc2C(=O)NS(=O)(=O)c2cccnc2N)C(C)(C)C1` [Compound 2418, N-[(2-amino-3-pyridyl)sulfonyl]-6-(4-isoquinolyl)-2-[(4S)-2,2,4-trimethylpyrrolidin-1-yl]pyridine-3-carboxamide], the 30% effect concentration (EC30) is < 3000 nM. Still for that read-out and setting: the figure for `COC(=O)N1CCN(c2cccc(S(=O)(=O)NC(=O)c3cccnc3N3CC(C)CC3(C)C)n2)CC1` (centres unmarked) [Compound 2506, methyl 4-[6-[[2-(2,2,4-trimethylpyrrolidin-1-yl)pyridine-3-carbonyl]sulfamoyl]-2-pyridyl]piperazine-1-carboxylate] is 3000 to 10000 nM; for `CC1CN(c2ncccc2C(=O)NS(=O)(=O)c2cccc(N3CCc4ccccc4C3)n2)C(C)(C)C1` (centres unmarked) [Compound 2098, N—[[6-(3,4-dihydro-1H-isoquinolin-2-yl)-2-pyridyl]sulfonyl]-2-(2,2,4-trimethylpyrrolidin-1-yl)pyridine-3-carboxamide] it is < 3000 nM; for `CC(C)COc1cc(F)cc(-c2ccc(C(=O)NS(=O)(=O)N3C[C@@H](O)[C@H](O)C3)c(N3C[C@@H](C)CC3(C)C)n2)c1` [Compound 2534, N-[(3R,4R)-3,4-dihydroxypyrrolidin-1-yl]sulfonyl-6-(3-fluoro-5-isobutoxy-phenyl)-2-[(4S)-2,2,4-trimethylpyrrolidin-1-yl]pyridine-3-carboxamide] it is < 3000 nM. On the same count and under the same terms, the figure for `CCCOc1ccc(-c2cnc(N3CC(C)CC3(C)C)c(C(=O)NS(=O)(=O)c3cccc(N)n3)c2)cc1C` (centres unmarked) [Compound 2095, N-[(6-amino-2-pyridyl)sulfonyl]-5-(3-methyl-4-propoxy-phenyl)-2-(2,2,4-trimethylpyrrolidin-1-yl)pyridine-3-carboxamide] is < 3000 nM; for `C[C@@H]1CN(c2nc(CCC3CC3)ccc2C(=O)NS(=O)(=O)c2cccnc2N)C(C)(C)C1` [Compound 2553, N-[(2-amino-3-pyridyl)sulfonyl]-6-(2-cyclopropylethyl)-2-[(4S)-2,2,4-trimethylpyrrolidin-1-yl]pyridine-3-carboxamide] it is < 3000 nM.

Still in this assay, the particulars now being: Table 3; compounds of Table 1 as modulators of CFTR activity; protocol not stated.
Turning to `CCc1ccc(-c2nc(C(C)(C)C)ccc2C(=O)NS(=O)(=O)c2cccc(N)c2)cc1` [Compound 359, N-(3-aminophenyl)sulfonyl-6-tert-butyl-2-(4-ethylphenyl)pyridine-3-carboxamide], the concentration for an effect of 30% (EC30) entry is given as “+++ (“+++” means <3 uM)”.

For the compound `Cc1cccc(C)c1Cn1nc(C2CCCC2)cc1C(=O)NS(=O)(=O)c1cccc(N)c1` [Compound 105, N-(3-aminophenyl)sulfonyl-5-cyclopentyl-2-[(2,6-dimethylphenyl)methyl]pyrazole-3-carboxamide], the EC30 result is “+++ (“+++” means <3 uM)”.

For the compound `Cc1cccc(C)c1Oc1nc(C(F)(F)F)ccc1C(=O)NS(=O)(=O)c1cccc(N)c1` [Compound 243, N-(3-aminophenyl)sulfonyl-2-(2,6-dimethylphenoxy)-6-(trifluoromethyl)pyridine-3-carboxamide], the EC30 entry was “+++ (“+++” means <3 uM)”. On to `CC(C)C(C)Oc1cccc(-c2ccc(C(=O)NS(=O)(=O)c3cccc(N)n3)c(N3CCCC3(C)C)n2)n1` (centres unmarked) [Compound 717, N-[(6-amino-2-pyridyl)sulfonyl]-6-[6-(1,2-dimethylpropoxy)-2-pyridyl]-2-(2,2-dimethylpyrrolidin-1-yl)pyridine-3-carboxamide], for which the EC30 result is “+++ (“+++” means <3 uM)”. Still for that read-out and setting: as for `Cc1cc(C)c(Cn2nc(C(C)(C)C)cc2C(=O)NS(=O)(=O)c2ccccc2)c(C)c1` [Compound 45, N-(benzenesulfonyl)-5-tert-butyl-2-[(2,4,6-trimethylphenyl)methyl]pyrazole-3-carboxamide], the entry is “+++ (“+++” means <3 uM)”; as for `Cc1cc(C)c(Oc2nc(-c3cccc(C)c3O)ccc2C(=O)NS(=O)(=O)c2cccc(N)n2)c(C)c1` [Compound 450, N-[(6-amino-2-pyridyl)sulfonyl]-6-(2-hydroxy-3-methyl-phenyl)-2-(2,4,6-trimethylphenoxy)pyridine-3-carboxamide], “+++ (“+++” means <3 uM)”; as for `CC(C)COc1cc(F)cc(-c2ccc(C(=O)NS(=O)(=O)c3cccc(N)n3)c(N3CC[C@H](C)C3)n2)c1` [Compound 678, N-[(6-amino-2-pyridyl)sulfonyl]-6-(3-fluoro-5-isobutoxy-phenyl)-2-[(3S)-3-methylpyrrolidin-1-yl]pyridine-3-carboxamide], “+++ (“+++” means <3 uM)”. `Cc1cccc(C)c1Cn1nc(C(C)(C)C)cc1C(=O)NS(=O)(=O)c1c(F)cccc1F` [Compound 170, 5-tert-butyl-N-(2,6-difluorophenyl)sulfonyl-2-[(2,6-dimethylphenyl)methyl]pyrazole-3-carboxamide]: the concentration for an effect of 30% (EC30) result is reported as “+++ (“+++” means <3 uM)”.

Turning to `COc1cc(F)ccc1-c1cc(C(=O)NS(=O)(=O)c2ccccc2)n(Cc2c(C)cccc2C)n1` [Compound 155, N-(benzenesulfonyl)-2-[(2,6-dimethylphenyl)methyl]-5-(4-fluoro-2-methoxy-phenyl)pyrazole-3-carboxamide], the EC30 result is “++ (“++” means between 3 uM and 10 uM)”. On the same count and under the same terms, the entry for `Cc1cc(C)c(Oc2nc(-c3ccccc3)ccc2C(=O)NS(=O)(=O)c2ccc[nH]c2=O)c(C)c1` [Compound 654, N-[(2-oxo-1H-pyridin-3-yl)sulfonyl]-6-phenyl-2-(2,4,6-trimethylphenoxy)pyridine-3-carboxamide] is “+++ (“+++” means <3 uM)”; for `Cc1cc(C)c(Oc2nc(C)ccc2C(=O)NS(=O)(=O)c2ccn[nH]2)c(C)c1` [Compound 670, 6-methyl-N-(1H-pyrazol-5-ylsulfonyl)-2-(2,4,6-trimethylphenoxy)pyridine-3-carboxamide] it is “++ (“++” means between 3 uM and 10 uM)”; for `Cc1cccc(C)c1Cn1nc(C(C)(C)C)cc1C(=O)NS(=O)(=O)c1cccc2c1ccn2C` [Compound 210, 5-tert-butyl-2-[(2,6-dimethylphenyl)methyl]-N-(1-methylindol-4-yl)sulfonyl-pyrazole-3-carboxamide] it is “+++ (“+++” means <3 uM)”. Same read-out and setting: as for `Cc1cccc(C)c1Oc1nc(C(F)(F)F)ccc1C(=O)NS(=O)(=O)c1cccc(N)n1` [Compound 246, N-[(6-amino-2-pyridyl)sulfonyl]-2-(2,6-dimethylphenoxy)-6-(trifluoromethyl)pyridine-3-carboxamide], the entry is “++ (“++” means between 3 uM and 10 uM)”.

These data come from patent US10758534B2 (Vertex Pharmaceuticals Incorporated, priority 2014, dated 2020).
